The text below walks through data of US8093395B2 (priority 2007, dated 2012).

Read-outs that look alike come from different tables or passages of the source.

Common to all, as to experiment: biochemical
Common to all, as to assay type: biochemical
Common to all, as to settings: for activity at 1 µM: pH 5.5, read-out: Sphingomyelinase Activity (%)

The target in assay [1] is T1, Bacillus cereus-SMase (Bacillus cereus, UniProt P11889).
For assay [2], the target named is T1, Bacillus cereus-SMase. On the procedure:
Preparation of Sphingomyelin-Liposome (SM-Liposome)
The sphingomyelin (SM), cholesterol, and CF solution used were as follows:
SM: sphingomyelin from bovin brain, code: 32156-74
Cholesterol: Nakarai code: 08721-75
CF solution: 5(6)-carbosyfluorescein; SIGMA C8166, FW=460.4
About 100 μl of 1 N sodium hydroxide (NaOH) was added to CF (27 mg/3 ml, DW) to prepare a CF solution. At this time, NaOH was added to give a pH of 7 to 8 as measured by a pH test paper.
Liposome Preparation Method
59 μl of a solution obtained by dissolving 2 mg of sphingomyelin (SM) in 160 μl of a mixed solvent of chloroform (CHCl3) and methanol (MeOH) (CHCl3:MeOH=2:1) was mixed with 20 μl of a solution obtained by dissolving 19.3 mg of cholesterol in 1 ml of CHCl3; the mixture was homogeneously spread to the bottom of a glass test tube while the CHCl3 and MeOH were distilled under nitrogen, and dried in a desiccator for 30 minutes. The CF solution was warmed to 55° C., and 80 μl of the CF solution was added with stirring to the SM from which the solvent was distilled (the molar ratio of […]: 1:1), and a procedure of placing the mixture in a water bath at 55° C. and stirring the mixture was repeated three times at 30-second intervals. A suitable amount of TBS was added, the mixture was centrifuged for 20 minutes at 15,000 rpm and 4° C., and the supernatant was removed. A suspension of the resulting product in 300 μl of TBS was used as a liposome.
Experiment 2: Influence of Compound (1a) and Compound (1b) on SM-Liposome Degradation Activity of Bacillus cereus-SMase
(§1) (i) Solution of Compound (1a)
(§2) Compound (1a) was dissolved in MeOH and adjusted to 1.7 mM and 17 mM.
(§3) (ii) Solution of Compound (1b)
(§4) Compound (1b) was dissolved in MeOH and adjusted to 1.7 mM and 17 mM.
[Method] Bc-SMase (50 ng/ml) was mixed with the solution of Compound (1a) with each concentration or the solution of Compound (1b) with each concentration, and the mixture was adjusted with GTBS (pH 5.5) to a total volume of 180 μl and pre-treated for 10 minutes at 37° C., after which 20 μl of the SM-liposome was added to the resulting reaction mixture and incubated for 30 minutes at 37° C. The reaction mixture was measured using a fluorometer (Corona Electric Co., Ltd.; MTP32 Microplate Reader, Ex490, Em530).
The source holds these as a separate data set.

The target of assay [3] is T1, Bacillus cereus-SMase. On the procedure: Experiment 3: Influence of Compound (1a) and Compound (1b) on the ^14C-Sphingomyelin (^14C-Sphingomyelin) Decomposition Activity of Bacillus cereus-SMase
as §1, §2, §3, §4
(iii) Preparation of TX-Buffer
0.5 g of Triton X-100 was dissolved in 100 ml of 0.02 M TB.
[Method] 30 ng/ml Bacillus cereus-SMase was mixed with the solution of Compound (1a) with each concentration or the solution of Compound (1b) with each concentration, and the mixture was adjusted with TX-buffer (pH 5.5) to a total volume of 200 μl and pre-treated for 10 minutes at 37° C., after which 10 μl of ^14C-sphingomyelin was added to the reaction mixture, and the resulting mixture was incubated for 30 minutes at 37° C. 600 μl of a solvent to stop the reaction (stop solution; CHCl3:MeOH=1:2) was added to the reaction mixture and the resulting mixture was stirred for 30 seconds twice, and centrifuged for 20 minutes at 2,000 rpm, after which the upper layer was measured using a liquid scintillation counter.
This is another data set of the same source.

T1 sequence (P11889 28-333): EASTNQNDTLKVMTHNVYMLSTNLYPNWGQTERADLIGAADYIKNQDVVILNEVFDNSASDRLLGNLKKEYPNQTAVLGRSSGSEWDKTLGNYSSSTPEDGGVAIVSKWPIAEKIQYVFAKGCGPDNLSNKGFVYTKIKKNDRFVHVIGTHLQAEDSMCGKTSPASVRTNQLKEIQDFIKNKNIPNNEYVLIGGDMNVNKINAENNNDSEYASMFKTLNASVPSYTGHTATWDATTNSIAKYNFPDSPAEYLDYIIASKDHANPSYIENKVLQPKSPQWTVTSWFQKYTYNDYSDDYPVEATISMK

Regarding `CCCCCCCCCCCCC/C=C/[C@@H](O)C(COCc1cccc(-c2ccccn2)n1)NC(=O)CCCCC` (stereo partly drawn) [Compound (1a)], the “sphingomyelinase activity was inhibited by (text summary of Table 1)” value at Bacillus cereus-SMase [1] (100-μM solution, sheep erythrocyte hemolysis) was “about 30%”. For the same compound, the results for the activity at 1 µM on Bacillus cereus-SMase [1], on Bacillus cereus-SMase [2] and at Bacillus cereus-SMase [3] were 98.2 ± 1.4%, 99 ± 0.2% and 98.6 ± 1.3%, respectively. Moreover, the “inhibition of sphingomyelinase activity (text summary of Table 2)” value against Bacillus cereus-SMase [2] (100-μM solution, SM-liposome degradation) is on record as “substantially completely inhibited”. In addition, the “sphingomyelinase activity was inhibited by (Table 3)” value on Bacillus cereus-SMase [3] (100-μM solution, 14C-sphingomyelin decomposition) is given as “about 25%”.

For `CCCCCCCCCCCCC/C=C/[C@@H](OCc1cccc(-c2ccccn2)n1)C(CO)NC(=O)CCCCC` (stereo partly drawn) [Compound (1b)], the “inhibitory effect compared with Compound (1a)” value is “did not show as potent an inhibitory effect as Compound (1a)” on Bacillus cereus-SMase [1] (1 to 100 μM, sheep erythrocyte hemolysis); “did not show as potent an inhibitory effect as Compound (1a)” at Bacillus cereus-SMase [2] (1 to 100 μM, SM-liposome degradation); “did not show as potent an inhibitory effect as Compound (1a)” on Bacillus cereus-SMase [3] (1 to 100 μM, 14C-sphingomyelin decomposition). Moreover, the activity at 1 µM was 96.2 ± 2.7% on Bacillus cereus-SMase [1], 99.1 ± 0.3% on Bacillus cereus-SMase [2] and 98.2 ± 2.3% on Bacillus cereus-SMase [3].
